# Target: HER2 (Homo sapiens (Human), UniProt P04626)
# Assay: BT474 cellular assay (HER2 inhibition), phospho-HER2 ELISA
# Type: cell-based
# Settings: inhibition of phosphor HER2, BT474 cells, 2 hours compound incubation
# Experimental: Assay a) BT474 Cellular Assay (HER2 Inhibition) Inhibition of phosphor HER2 was determined by enzyme-linked immunosorbent assay (ELISA) in BT474 cells. BT474 cell line was purchased from [NT] number HTB-20). Human Phospho-ErbB2 ELISA kit was purchased from R&D systems (catalog number DYC1768). Day 1: When the cells reach 70-90% confluence, cells were trypsinized and re-suspended. 5000 cells per well were seeded to a 384-well plate. The plate was incubated at 37° C. with 5% CO2 for 24 hours. ELISA plate was coated with 2 μg/ml capture antibody, which was incubated at 4° C. overnight. Day 2: 25 nl compounds was dosed by Echo from source plate and the 384-well plate was incubated at 37° C. for 2 hours. 30 μl lysis buffer was added to each well and the 384-well plate was shaken softly at 4° C. for 30 minutes. The ELISA plate was washed, blocked and incubated at room temperature for 1-2 hours. The blocked ELISA plate was washed and 20 μl cell lysate was transferred from the 384-well plate to the ELISA plate, which was incubated overnight at 4° C. Day 3: The ELISA plate was washed 3 times. 25 μl/well detection antibody was added (diluted 1 by 2000 in 1% BSA in PBS). After 2 hours of incubation with detection antibody, the ELISA plate was washed 3 times, 25 μl/well TMB substrate was added and incubated for 10-15 minutes before stop solution was added. Absorbance at 450 nm and 570 nm was read within 30 minutes after adding the stop solution. […] The IC50 results are provided in Table 1 for some exemplary compounds.
# HER2, sequence (P04626 23-1255): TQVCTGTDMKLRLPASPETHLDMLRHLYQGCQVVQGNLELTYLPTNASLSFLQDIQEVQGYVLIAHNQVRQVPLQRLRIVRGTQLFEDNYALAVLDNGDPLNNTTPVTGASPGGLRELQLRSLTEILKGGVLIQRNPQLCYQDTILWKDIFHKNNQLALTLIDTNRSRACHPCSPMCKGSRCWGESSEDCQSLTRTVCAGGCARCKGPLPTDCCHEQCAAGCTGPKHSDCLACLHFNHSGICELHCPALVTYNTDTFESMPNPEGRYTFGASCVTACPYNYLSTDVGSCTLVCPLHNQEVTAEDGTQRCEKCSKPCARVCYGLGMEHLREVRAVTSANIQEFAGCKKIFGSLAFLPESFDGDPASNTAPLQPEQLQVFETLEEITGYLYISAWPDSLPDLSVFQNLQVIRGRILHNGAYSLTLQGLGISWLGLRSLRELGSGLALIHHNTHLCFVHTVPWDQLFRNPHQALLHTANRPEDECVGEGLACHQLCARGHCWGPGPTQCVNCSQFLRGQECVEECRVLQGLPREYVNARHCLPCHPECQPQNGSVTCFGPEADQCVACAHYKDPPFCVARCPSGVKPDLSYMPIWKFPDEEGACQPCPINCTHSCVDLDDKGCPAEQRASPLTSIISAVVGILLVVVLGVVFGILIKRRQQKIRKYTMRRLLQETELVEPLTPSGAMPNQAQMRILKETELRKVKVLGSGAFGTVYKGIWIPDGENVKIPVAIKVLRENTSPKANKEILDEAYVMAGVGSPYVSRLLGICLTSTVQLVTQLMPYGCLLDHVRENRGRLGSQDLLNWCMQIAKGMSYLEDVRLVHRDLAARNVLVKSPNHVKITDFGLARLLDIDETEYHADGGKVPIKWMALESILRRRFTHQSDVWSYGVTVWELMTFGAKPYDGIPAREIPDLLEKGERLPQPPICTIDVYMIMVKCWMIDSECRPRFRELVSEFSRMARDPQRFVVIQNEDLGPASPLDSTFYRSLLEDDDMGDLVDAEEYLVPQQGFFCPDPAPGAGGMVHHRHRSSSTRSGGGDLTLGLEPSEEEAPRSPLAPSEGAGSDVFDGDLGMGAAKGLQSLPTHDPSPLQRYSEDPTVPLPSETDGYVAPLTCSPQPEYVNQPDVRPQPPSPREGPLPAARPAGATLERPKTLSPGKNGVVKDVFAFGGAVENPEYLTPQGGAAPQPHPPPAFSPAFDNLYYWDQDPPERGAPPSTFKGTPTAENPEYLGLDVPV
row,SMILES,IC50
1,"Cc1cc(Nc2ncnc3ccc(OC(F)F)c(O[C@@H]4CCN(C)CC4(F)F)c23)ccc1Oc1cc2ncnn2cn1 [Example 17, (R)—N-(4-([1,2,4]triazolo[1,5-c]pyrimidin-7-yloxy)-3-methylphenyl)-5-((3,3-difluoro-1-methylpiperidin-4-yl)oxy)-6-(difluoromethoxy)quinazolin-4-amine]",35 nM
2,"Cc1cc(Nc2ncnc3ccc(O[C@H]4CCOC4)c(O[C@@H]4CCN(C)CC4(F)F)c23)ccc1Oc1cc2ncnn2cn1 [Example 21, N-(4-([1,2,4]triazolo[1,5-c]pyrimidin-7-yloxy)-3-methylphenyl)-5-(((R)-3,3-difluoro-1-methylpiperidin-4-yl)oxy)-6-(((S)-tetrahydrofuran-3-yl)oxy)quinazolin-4-amine]",15 nM
3,"Cc1cc(Nc2ncnc3ccc(O[C@H]4CCOC4)c(O[C@H]4CCN(C)CC4(F)F)c23)ccc1Oc1cc2ncnn2cn1 [Example 22, N-(4-([1,2,4]triazolo[1,5-c]pyrimidin-7-yloxy)-3-methylphenyl)-5-(((S)-3,3-difluoro-1-methylpiperidin-4-yl)oxy)-6-(((S)-tetrahydrofuran-3-yl)oxy)quinazolin-4-amine]",21 nM
4,"COc1ccc2ncnc(Nc3ccc(Oc4cc5ncnn5cn4)c(C)c3)c2c1N1CC2C1CCN2CC(F)F (centres unmarked) [Example 68, N-(4-([1,2,4]triazolo[1,5-c]pyrimidin-7-yloxy)-3-methylphenyl)-5-(2-(2,2-difluoroethyl)-2,6-diazabicyclo[3.2.0]heptan-6-yl)-6-methoxyquinazolin-4-amine]",6.4 nM
5,"Cc1cc(Nc2ncnc3ccc(OC(F)(F)F)c(O[C@@H]4CCN(C)CC4(F)F)c23)ccc1Oc1cc2ncnn2cn1 [Example 72, (R)—N-(4-([1,2,4]-triazolo[1,5-c]pyrimidin-7-yloxy)-3-methylphenyl)-5-((3,3-difluoro-1-methylpiperidin-4-yl)oxy)-6-(trifluoromethoxy)quinazolin-4-amine]",51 nM

# Continued, values first:
row,IC50,SMILES
1,27 nM,"COc1ccc2ncnc(Nc3ccc(Oc4cc5ncnn5cn4)c(C)c3)c2c1N1CC[C@@H](N(C)C)C1 [Example 2, (R)—N-(4-([1,2,4]-triazolo[1,5-c]pyrimidin-7-yloxy)-3-methylphenyl)-5-(3-(dimethylamino)pyrrolidin-1-yl)-6-methoxyquinazolin-4-amine]"
2,82 nM,"COc1ccc2ncnc(Nc3ccc(Oc4cc5ncnn5cn4)c(C)c3)c2c1OC1CCN(C)CC1 [Example 5, N-(4-([1,2,4]triazolo[1,5-c]pyrimidin-7-yloxy)-3-methylphenyl)-6-methoxy-5-((1-methylpiperidin-4-yl)oxy)quinazolin-4-amine]"
3,48 nM,"Cc1cc(Nc2ncnc3ccc(OC(F)F)c(O[C@H]4CCN(C)CC4(F)F)c23)ccc1Oc1cc2ncnn2cn1 [Example 18, (S)—N-(4-([1,2,4]triazolo[1,5-c]pyrimidin-7-yloxy)-3-methylphenyl)-5-((3,3-difluoro-1-methylpiperidin-4-yl)oxy)-6-(difluoromethoxy)quinazolin-4-amine]"
4,9.3 nM,"Cc1cc(Nc2ncnc3ccc(OC(C)C)c(O[C@@H]4CCN(C)CC4(F)F)c23)ccc1Oc1cc2ncnn2cn1 [Example 29, (R)—N-(4-([1,2,4]triazolo[1,5-c]pyrimidin-7-yloxy)-3-methylphenyl)-5-((3,3-difluoro-1-methylpiperidin-4-yl)oxy)-6-isopropoxyquinazolin-4-amine]"
5,20 nM,"Cc1cc(Nc2ncnc3ccc(OC(C)C)c(O[C@H]4CCN(C)CC4(F)F)c23)ccc1Oc1cc2ncnn2cn1 [Example 30, (S)—N-(4-([1,2,4]triazolo[1,5-c]pyrimidin-7-yloxy)-3-methylphenyl)-5-((3,3-difluoro-1-methylpiperidin-4-yl)oxy)-6-isopropoxyquinazolin-4-amine]"
6,17 nM,"COc1ccc2ncnc(Nc3ccc(Oc4cc5ncnn5cn4)c(C)c3)c2c1N1CC2C1CCN2C1CC1 (centres unmarked) [Example 67, N-(4-([1,2,4]triazolo[1,5-c]pyrimidin-7-yloxy)-3-methylphenyl)-5-(2-cyclopropyl-2,6-diazabicyclo[3.2.0]heptan-6-yl)-6-methoxyquinazolin-4-amine]"

# From US11723908B2, “Quinazoline derivatives as antitumor agents” (SUZHOU ZANRONG PHARMA LIMITED, priority 2018, dated 2023)
